Reference: US20240158446A1, “CYCLIC COMPOUND HAVING SELECTIVE INHIBITORY ACTION ON KRAS OVER HRAS AND NRAS” (CHUGAI SEIYAKU KABUSHIKI KAISHA, priority 2021, published 2024)

Columns and labels:
[1] = target: GDP-bound NRAS wild-type protein (Homo sapiens, UniProt P01111); assay: Binding to NRAS by surface plasmon resonance (SPR), Single Cycle Kinetics; conditions: SPR, GDP-bound NRAS wild-type protein vs GDP-bound KRAS wild-type protein
[2] = target: GDP-bound KRAS wild-type protein (Homo sapiens, UniProt P01116); assay: Binding to KRAS by surface plasmon resonance (SPR), Single Cycle Kinetics; conditions: SPR, Single Cycle Kinetics, GDP-bound KRAS wild-type protein; read-out: KRAS KD
[3] = target: GDP-bound HRAS wild-type protein (Homo sapiens, UniProt P01112); assay: Binding to HRAS by surface plasmon resonance (SPR), Single Cycle Kinetics; conditions: SPR, GDP-bound HRAS wild-type protein vs GDP-bound KRAS wild-type protein
GDP-bound HRAS wild-type protein, sequence (P01112 whole entry): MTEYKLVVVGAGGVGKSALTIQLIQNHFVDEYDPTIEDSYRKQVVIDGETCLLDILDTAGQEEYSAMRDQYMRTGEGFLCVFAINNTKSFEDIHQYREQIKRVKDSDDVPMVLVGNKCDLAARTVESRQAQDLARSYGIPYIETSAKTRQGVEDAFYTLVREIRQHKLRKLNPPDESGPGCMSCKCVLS

GDP-bound KRAS wild-type protein, sequence (P01116 whole entry): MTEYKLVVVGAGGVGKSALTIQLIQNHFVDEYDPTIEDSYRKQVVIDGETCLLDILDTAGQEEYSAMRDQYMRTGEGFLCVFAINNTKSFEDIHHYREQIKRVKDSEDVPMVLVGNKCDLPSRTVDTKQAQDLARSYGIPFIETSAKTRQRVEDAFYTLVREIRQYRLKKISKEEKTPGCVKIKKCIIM
GDP-bound NRAS wild-type protein, sequence (P01111 whole entry): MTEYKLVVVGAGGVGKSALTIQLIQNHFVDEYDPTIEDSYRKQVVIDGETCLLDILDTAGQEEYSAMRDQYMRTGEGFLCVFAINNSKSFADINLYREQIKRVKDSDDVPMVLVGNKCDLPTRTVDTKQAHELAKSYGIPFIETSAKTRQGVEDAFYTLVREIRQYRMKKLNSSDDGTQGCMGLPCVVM

Structure (SMILES)	NRAS/KRAS (ratio of KD value for NRAS to KD value for KRAS) [1]	Kd [2] [nM]	HRAS/KRAS (ratio of KD value for HRAS to KD value for KRAS) [3]
CCO[C@@H]1C[C@H]2C(=O)NC3(CCC3)C(=O)N(C)[C@@H](C3CCCC3)C(=O)N(C)[C@H](C(=O)N3CCOCC3)CC(=O)N(C)[C@@H](COC)C(=O)N[C@@H]([C@@H](C)CC)C(=O)N(C)CC(=O)N(C)[C@H]3CCCCCN(C3=O)[C@@H](Cc3ccc(C(F)(F)F)cc3)C(=O)N(C)CC(=O)N[C@@H](CCc3ccc(C(F)(F)F)c(Cl)c3)C(=O)N2C1 [PP0849]	B (a compound having 3 or more and less than 10 is denoted as B)	0.46	B (a compound having 3 or more and less than 10 is denoted as B)
CCO[C@@H]1C[C@H]2C(=O)NC3(CCC3)C(=O)N(C)[C@@H](C3CCCC3)C(=O)N(C)[C@H](C(=O)N3CCOCC3)CC(=O)N(C)[C@@H](COC)C(=O)N[C@@H]([C@@H](C)CC)C(=O)N(C)CC(=O)N(C)[C@H]3CCCCCN(C3=O)[C@@H](Cc3ccc(C(F)(F)F)cc3)C(=O)N(C)CC(=O)N[C@@H](CCc3ccc(C)cc3)C(=O)N2C1 [PP0850]	B (a compound having 3 or more and less than 10 is denoted as B)	12	B (a compound having 3 or more and less than 10 is denoted as B)
CCO[C@@H]1C[C@H]2C(=O)NC3(CCC3)C(=O)N(C)[C@@H](C3CCCC3)C(=O)N(C)[C@H](C(=O)N3CCOCC3)CC(=O)N(C)[C@@H](CC(F)F)C(=O)N[C@@H]([C@@H](C)CC)C(=O)N(C)CC(=O)N(C)[C@H]3CCCCCN(C3=O)[C@@H](Cc3ccc(C(F)(F)F)cc3)C(=O)N(C)CC(=O)N[C@@H](CCc3cc(F)c(C(F)(F)F)c(F)c3)C(=O)N2C1 [PP0854]	B (a compound having 3 or more and less than 10 is denoted as B)	0.38	B (a compound having 3 or more and less than 10 is denoted as B)
CCO[C@@H]1C[C@H]2C(=O)NC3(CCC3)C(=O)N(C)[C@@H](C3CCCC3)C(=O)N(C)[C@H](C(=O)N3CCOCC3)CC(=O)N(C)[C@@H](Cc3cccc(Cl)c3)C(=O)N[C@@H]([C@@H](C)CC)C(=O)N(C)CC(=O)N(C)[C@H]3CCCCCN(C3=O)[C@@H](Cc3ccc(C(F)(F)F)cc3)C(=O)N(C)CC(=O)N[C@@H](CCc3cc(F)c(C(F)(F)F)c(F)c3)C(=O)N2C1 [PP0857]	B (a compound having 3 or more and less than 10 is denoted as B)	1.4	B (a compound having 3 or more and less than 10 is denoted as B)
CCO[C@@H]1C[C@H]2C(=O)NC3(CCC3)C(=O)N(C)[C@@H](C3CCCC3)C(=O)N(C)[C@H](C(=O)N3CCOCC3)CC(=O)N(C)[C@@H](COC)C(=O)N[C@@H]([C@@H](C)CC)C(=O)NCC(=O)N(C)[C@H]3CCCCCN(C3=O)[C@@H](Cc3ccc(C(F)(F)F)cc3)C(=O)N(C)CC(=O)N[C@@H](CCc3cc(F)c(C(F)(F)F)c(F)c3)C(=O)N2C1 [PP0858]	B (a compound having 3 or more and less than 10 is denoted as B)	0.66	B (a compound having 3 or more and less than 10 is denoted as B)
CCO[C@@H]1C[C@H]2C(=O)NC3(CCC3)C(=O)N(C)[C@@H](C3CCCC3)C(=O)N(C)[C@H](C(=O)N(C)C)CC(=O)N(C)[C@@H](COC)C(=O)N[C@@H]([C@@H](C)CC)C(=O)NCC(=O)N(C)[C@H]3CCCCCN(C3=O)[C@@H](Cc3ccc(C(F)(F)F)cc3)C(=O)N(C)CC(=O)N[C@@H](CCc3cc(F)c(C(F)(F)F)c(F)c3)C(=O)N2C1 [PP0859]	B (a compound having 3 or more and less than 10 is denoted as B)	0.31	B (a compound having 3 or more and less than 10 is denoted as B)
